The results in this text go back to patent EP0051773A1, “Penicillins, their salts, process for their preparation and pharmaceutical compositions containing them” (Dr. Karl Thomae GmbH, priority 1980, dated 1982).

Converted amounts (≈) assume the structure as drawn.

Assay [1] deals with Escherichia coli ATCC 11 775. Briefly: serial dilution test in microtiter system (bacteriostasis, MIC). The conditions noted are these: ATCC11, liquid medium, 18 to 20 h at 37°C, read-out: MHK-Werte E.coli ATCC 11 755. The class given is cell-based.
Assay [2] relates to Klebsiella pneumoniae ATCC 10 031. Described as above. The class given is cell-based. The conditions noted are these: ATCC10, liquid medium, 18 to 20 h at 37°C, read-out: MHK-Werte Kl. pneum. ATCC 10 031.
Assay [3] concerns Pseudomonas aeruginosa Walter. Described as above. The class given is cell-based. The conditions noted are these: liquid medium, 18 to 20 h at 37°C, read-out: MHK-Werte Pseud. aerug. Walter.
Assay [4] relates to Proteus rettgeri BC 7. The assay is described as above. The class given is cell-based. The settings on record: Providencia rettgeri, BC7; liquid medium, 18 to 20 h at 37°C; read-out: MHK-Werte Prot. rettg. BC 7.
In assay [5] the test system is Proteus mirabilis Hamburgensis. The description is as above. The conditions noted are these: liquid medium, 18 to 20 h at 37°C, read-out: MHK-Werte Prot. mir. Hbg. The class given is cell-based.
Assay [6] concerns Staphylococcus aureus SG 511. Described as above. It counts as cell-based. The conditions noted are these: SG511, liquid medium, 18 to 20 h at 37°C, read-out: MHK-Werte Staph. aureus SG 511.
In assay [7] the test system is Enterobacter cloacae ATCC 13 047. Described as above. The class given is cell-based. The conditions noted are these: ATCC13, liquid medium, 18 to 20 h at 37°C, read-out: MHK-Werte Eb. cloacae 13 047.
The test system of assay [8] is Serratia marcescens ATCC 13 880. The assay is described as above. The settings on record: ATCC13, liquid medium, 18 to 20 h at 37°C, read-out: MHK-Werte Serr. marcesc. ATCC 13 880. The class given is cell-based.
The test system of assay [9] is Klebsiella pneumoniae BC 6. The description is as above. It counts as cell-based. The conditions noted are these: BC6, liquid medium, 18 to 20 h at 37°C, read-out: MHK-Werte Kl. pneum. BC 6.
Assay [10] concerns Pseudomonas aeruginosa Hamburgensis. The description is as above. The class given is cell-based. The settings on record: liquid medium, 18 to 20 h at 37°C, read-out: MHK-Werte Pseud. aerug. Hbg.
Assay [11] has as its system Pseudomonas aeruginosa Walter. Briefly: experimental intraperitoneal infection in mice, ED50 (survival). The conditions noted are these: sc, 168 h, female NMRI mice, i.p. infection, s.c. application, treated three times, 7 days observation, read-out: ED50 Pseud. aerug. Walter. It counts as in vivo, Mäuse. The protocol: (§1) Eine Reihe der erfindungsgemäßen Verbindungen wurde in vivo bei experimentellen Infektionen an Mäusen untersucht. Man verwendete als pathogene Bakterien E.coli ATCC 11 775 und Pseudomonas aeruginosa Walter. Es wurde eine intraperitoneale Infektion mit 0,2 ml einer 5%igen Mucinsuspension der Bakterien gesetzt. Dies entspricht etwa 2x10^6 Keime E.coli bzw. 8x10^5 Keime Pseudomonas/Maus. Weibliche Mäuse vom Stamm NMRI wurden in Gruppen von jeweils 10 Tieren aufgeteilt, zwei Gruppen blieben unbehandelt, die restlichen Gruppen wurden mit verschiedenen Dosen der jeweiligen erfindungsgemäßen Penicilline zur Bestimmung der ED50 (Dosis, bei der 50 % der Tiere überleben) behandelt. Bei der E.coli-Infektion wurde einmal therapiert. Bei der Pseudomonas-Infektion wurde dreimal behandelt.
(§2) Der Beobachtungszeitraum betrug in beiden Fällen 7 Tage. Die Ergebnisse dieser Teste mit repräsentativen Vertretern der erfindungsgemäßen Penicilline sind in der Tabelle 3 dargestellt.

The subject of assay [12] is E.coli ATCC 11 775. The assay is described as above. The settings on record: Escherichia coli, ATCC 11 / ATCC 1175, sc, 168 h; female NMRI mice, i.p. infection, s.c. application, treated once, 7 days observation. The class given is in vivo, Mäuse. The procedure: as §1, §2

For orientation: ED50 means the dose at which the effect has come halfway, by size or by number of responders. `CC1(C)SC2C(NC(=O)C(NC(=O)Nc3cnc(Nc4ccc(S(C)(=O)=O)cc4)nc3O)c3ccccc3)C(=O)N2C1C(=O)O` (stereo not drawn) [Verbindung 24]: the MIC in [1] is 0.12 µg/mL (≈ 0.183 µM); in assay [2], 0.5 µg/mL (≈ 0.763 µM); in [3], 2 µg/mL (≈ 3.05 µM); in assay [4] it was 0.12 µg/mL (≈ 0.183 µM); in assay [5] it was 0.06 µg/mL (≈ 0.0915 µM); in [6], 0.25 µg/mL (≈ 0.381 µM). Moreover, the MIC in assay [7] came to 2 µg/mL (≈ 3.05 µM); in assay [8] it was 0.12 µg/mL (≈ 0.183 µM); in [9], 0.5 µg/mL (≈ 0.763 µM); in assay [10], 1 µg/mL (≈ 1.53 µM). Further, the median effective dose (ED50) in assay [11] turned out to be 7.5 mg/kg; in [12], 4.7 mg/kg.

Regarding `CNC(=O)c1ccc(Nc2ncc(NC(=O)NC(C(=O)NC3C(=O)N4C3SC(C)(C)C4C(=O)O)c3ccc(O)cc3)c(O)n2)cc1` (stereo not drawn) [Verbindung 37], the MIC in assay [1] was determined as 0.25 µg/mL (≈ 0.384 µM); in assay [2], 2 µg/mL (≈ 3.07 µM); in assay [3], 1 µg/mL (≈ 1.54 µM); in assay [4], 0.5 µg/mL (≈ 0.768 µM); in assay [5], 0.06 µg/mL (≈ 0.0922 µM); in assay [6], 0.5 µg/mL (≈ 0.768 µM). Moreover, the MIC was 1 µg/mL (≈ 1.54 µM) in assay [7], 0.25 µg/mL (≈ 0.384 µM) in [8], 2 µg/mL (≈ 3.07 µM) in assay [9] and 1 µg/mL (≈ 1.54 µM) in [10]. Moreover, the results for the ED50 in assay [11] and in assay [12] were 8 mg/kg and 2.8 mg/kg, respectively.

As for `CC1(C)SC2C(NC(=O)C(NC(=O)Nc3cnc(Nc4ccc(S(N)(=O)=O)c(O)c4)nc3O)c3ccc(O)cc3)C(=O)N2C1C(=O)O` (stereo not drawn) [Verbindung 44], the MIC in assay [1] stood at 0.12 µg/mL (≈ 0.174 µM); in [2], 1 µg/mL (≈ 1.45 µM); in assay [3], 0.5 µg/mL (≈ 0.726 µM); in [4], 0.25 µg/mL (≈ 0.363 µM); in assay [5], 0.03 µg/mL (≈ 0.0436 µM); in assay [6], 0.25 µg/mL (≈ 0.363 µM). Also, the MIC stood at 0.5 µg/mL (≈ 0.726 µM) in assay [7], 0.12 µg/mL (≈ 0.174 µM) in assay [8], 1 µg/mL (≈ 1.45 µM) in assay [9] and 0.5 µg/mL (≈ 0.726 µM) in [10]. Further, the ED50 in assay [11] was found to be 3.6 mg/kg; in [12], 2.1 mg/kg.

With `CC1(C)SC2C(NC(=O)C(NC(=O)Nc3cnc(Nc4ccc(S(N)(=O)=O)c(O)c4)nc3O)c3ccccc3)C(=O)N2C1C(=O)O` (stereo not drawn) [Verbindung 45], the MIC in [1] came out at 0.12 µg/mL (≈ 0.178 µM); in [2], 0.5 µg/mL (≈ 0.743 µM); in [3] it was 0.5 µg/mL (≈ 0.743 µM); in [4], 0.25 µg/mL (≈ 0.372 µM); in [5] it was 0.06 µg/mL (≈ 0.0892 µM); in assay [6] it was 0.12 µg/mL (≈ 0.178 µM). In addition, the MIC in [7] worked out at 1 µg/mL (≈ 1.49 µM); in assay [8], 0.12 µg/mL (≈ 0.178 µM); in assay [9], 1 µg/mL (≈ 1.49 µM); in [10] it was 1 µg/mL (≈ 1.49 µM). Besides, the ED50 is 5.2 mg/kg in assay [11] and 3.2 mg/kg in assay [12].

Take `C[S+]([O-])c1ccc(CNc2ncc(NC(=O)NC(C(=O)N[C@@H]3C(=O)N4[C@@H]3SC(C)(C)[C@@H]4C(=O)O)c3ccc(O)cc3)c(O)n2)cc1` (stereo partly drawn) [Verbindung 62]: the MIC in assay [1] was 0.5 µg/mL (≈ 0.747 µM); in assay [2], 4 µg/mL (≈ 5.97 µM); in [3], 2 µg/mL (≈ 2.99 µM); in assay [4] it was 1 µg/mL (≈ 1.49 µM); in assay [5], 0.12 µg/mL (≈ 0.179 µM); in [6], 0.5 µg/mL (≈ 0.747 µM). The MIC is 4 µg/mL (≈ 5.97 µM) in assay [7], 1 µg/mL (≈ 1.49 µM) in assay [8], 8 µg/mL (≈ 11.9 µM) in assay [9] and 2 µg/mL (≈ 2.99 µM) in [10]. Also, the ED50 is 18.3 mg/kg in [11] and 5.9 mg/kg in [12].

Regarding `CC1(C)S[C@@H]2[C@H](NC(=O)C(NC(=O)Nc3cnc(NCc4ccc(S(N)(=O)=O)cc4)nc3O)c3ccc(O)cc3)C(=O)N2[C@H]1C(=O)O` (stereo partly drawn) [Verbindung 64], the MIC is 0.12 µg/mL (≈ 0.175 µM) in assay [1]; 4 µg/mL (≈ 5.82 µM) in assay [2]; 1 µg/mL (≈ 1.46 µM) in [3]; 0.5 µg/mL (≈ 0.728 µM) in assay [4]; 0.06 µg/mL (≈ 0.0874 µM) in [5]; 0.25 µg/mL (≈ 0.364 µM) in assay [6]. Moreover, the MIC in assay [7] was 2 µg/mL (≈ 2.91 µM); in assay [8], 0.25 µg/mL (≈ 0.364 µM); in [9] it was 4 µg/mL (≈ 5.82 µM); in [10] it was 2 µg/mL (≈ 2.91 µM). For the same compound, the ED50 in [11] is 12.4 mg/kg; in assay [12], 2.4 mg/kg.
